Test results taken from patent US20200254065A1, “LONG-ACTING GLP-2 ANALOGS” (OPKO Biologics Ltd., priority 2019, published 2020).
Square brackets hold non-standard residues; d marks the D form. Ends that are not written are not given here. Peptide text beside a SMILES is read from it. Nle = CCCC[C@H](N)C(=O)O

Key:
[1] = Stability of GLP-2 analogues on incubation at 37° C. (appearance, O.D. reading, RP-HPLC); type: physicochemical; settings: following 48 h incubation at 37° C.; for Stability via RP-HPLC main peak: change of main peak
Method: The GLP-2 analogues were tested for stability via appearance, O.D. reading (A.280, and A.325) and RP-HPLC (purity, and peak area) following t=0, 1 day, and 48 h incubation at 37° C.

[2] = target: T1, GLP-2 receptor (Homo sapiens, UniProt O95838); assay: GLP-2 receptor Cell Based Assay (CBA)
T1 sequence (O95838 1-553): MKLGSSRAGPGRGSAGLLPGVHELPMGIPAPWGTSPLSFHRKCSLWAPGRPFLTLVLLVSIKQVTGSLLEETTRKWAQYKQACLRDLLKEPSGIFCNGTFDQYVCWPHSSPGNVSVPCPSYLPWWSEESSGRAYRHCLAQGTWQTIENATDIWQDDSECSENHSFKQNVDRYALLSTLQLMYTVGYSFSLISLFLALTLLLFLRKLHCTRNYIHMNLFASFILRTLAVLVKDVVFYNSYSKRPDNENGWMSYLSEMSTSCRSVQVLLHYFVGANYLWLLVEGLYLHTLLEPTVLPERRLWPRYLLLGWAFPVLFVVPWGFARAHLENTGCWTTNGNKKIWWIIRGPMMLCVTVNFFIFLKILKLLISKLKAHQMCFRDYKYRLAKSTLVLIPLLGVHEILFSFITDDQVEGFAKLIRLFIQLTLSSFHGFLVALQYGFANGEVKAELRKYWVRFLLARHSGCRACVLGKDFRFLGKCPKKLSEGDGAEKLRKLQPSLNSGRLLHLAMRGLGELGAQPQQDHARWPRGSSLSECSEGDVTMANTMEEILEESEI
Method: Evaluation of in vitro binding affinity of the different peptides was assessed by using Cell Based Assay (CBA) in the presence of escalating doses of the different peptides.

[3] = Table 8, average of 3 independent CBA

Row | Compound | Solubility via appearance [1] | Stability via RP-HPLC main peak [1] | further results
1 | CCCC[C@H](NC(=O)[C@H](CCC(=O)O)NC(=O)[C@H](CC(=O)O)NC(=O)[C@H](CO)NC(=O)[C@H](Cc1ccccc1)NC(=O)[C@H](CO)NC(=O)CNC(=O)[C@H](CCC(=O)O)NC(=O)CNC(=O)[C@@H](N)Cc1c[nH]cn1)C(=O)N[C@H](Cc1ccccc1)C(=O)N[C@H](C(=O)N[C@H](C(=O)N[C@@H](CC(C)C)C(=O)N[C@@H](CC(=O)O)C(=O)N[C@@H](CC(N)=O)C(=O)N[C@@H](CC(C)C)C(=O)N[C@@H](C)C(=O)N[C@@H](C)C(=O)N[C@@H](CCCNC(=N)N)C(=O)N[C@@H](CC(=O)O)C(=O)N[C@@H](Cc1ccccc1)C(=O)N[C@H](C(=O)N[C@@H](CC(N)=O)C(=O)N[C@@H](Cc1c[nH]c2ccccc12)C(=O)N[C@@H](CC(C)C)C(=O)N[C@H](C(=O)N[C@@H](CCC(N)=O)C(=O)N[C@H](C(=O)N[C@@H](CCCCN)C(=O)N[C@H](C(=O)N[C@H](C(=O)N[C@@H](CC(=O)O)C(N)=O)[C@@H](C)O)[C@@H](C)CC)[C@@H](C)O)[C@@H](C)CC)[C@@H](C)CC)[C@@H](C)CC)[C@@H](C)O [Variant 2] (H-HGEGSFSDE[Nle][dF]TILDNLAARDFINWLIQTKITD-NH2) | V2: opaque | V2: −30% | EC50 Ratio to Teduglutide ([2]; Table 7): 6.4
2 | CCCC[C@H](NC(=O)[C@H](CCC(=O)O)NC(=O)[C@H](CC(=O)O)NC(=O)[C@H](CO)NC(=O)[C@H](Cc1ccccc1)NC(=O)[C@H](CO)NC(=O)CNC(=O)[C@H](CCC(=O)O)NC(=O)CNC(=O)[C@@H](N)Cc1c[nH]cn1)C(=O)N[C@H](Cc1ccccc1)C(=O)N[C@H](C(=O)N[C@H](C(=O)N[C@@H](CC(C)C)C(=O)N[C@@H](CC(=O)O)C(=O)N[C@@H](CC(C)C)C(=O)N[C@@H](CC(C)C)C(=O)N[C@@H](C)C(=O)N[C@@H](C)C(=O)N[C@@H](CCCNC(=N)N)C(=O)N[C@@H](CC(=O)O)C(=O)N[C@@H](Cc1ccccc1)C(=O)N[C@H](C(=O)N[C@@H](CC(N)=O)C(=O)N[C@@H](Cc1c[nH]c2ccccc12)C(=O)N[C@@H](CC(C)C)C(=O)N[C@H](C(=O)N[C@@H](CCC(N)=O)C(=O)N[C@H](C(=O)N[C@@H](CCCCN)C(=O)N[C@H](C(=O)N[C@H](C(=O)N[C@@H](CC(=O)O)C(N)=O)[C@@H](C)O)[C@@H](C)CC)[C@@H](C)O)[C@@H](C)CC)[C@@H](C)CC)[C@@H](C)CC)[C@@H](C)O [Variant 9] (H-HGEGSFSDE[Nle][dF]TILDLLAARDFINWLIQTKITD-NH2) | V9: clear | V9: −1.5% | –
3 | H-HGEGTFSSELATILDALAARDFIAWLIATKITDKKKKKK-NH2 [Variant 10, NH2-HG^2E^3GT^5FSS^8EL^10A^11TILDA^16LAAR20DFIA^24WLIA^28TKITDK^34K^35K^36K^37K^38K^39- NH2, reference compound] | – | – | EC50 Ratio to Teduglutide [2, 3]: 9.4; EC50 Ratio to Variant 4 [2, 3]: 5.3
4 | HGEGTFSSELATILDALAARDFIAWLIATKITDKKKKKK-NH2 [Variant 10, NH2-HG^2E^3GT^5FSS^8EL^10A^11TILDA^16LAAR20DFIA^24WLIA^28TKITDK^34K^35K^36K^37K^38K^39- NH2, reference compound] | – | – | EC50 ([2]; EC50 (nM) Average, average of 3 independent CBA, different GLP-2R Assay Kit lot (Table 8)): 5.4 nM
